US8399465B2, “Compounds with two fused bicyclic heteroaryl moieties as modulators of leukotriene A4 hydrolase” (Janssen Pharmaceutica NV, priority 2009, dated 2013)
pIC50: −log10 of the molar value. Structures can show the parent of a compound that is named as a salt. Where two headings read alike, the source gives them in different places.

Tests used:
[1] = system: LTB4 production in murine blood (LTA4H); test: LTB4 production by calcium ionophore-stimulated murine blood for LTA4H inhibitor activity; assay type: cell-based, CD-1 mice; settings: Mus musculus; murine blood diluted 1 in 15, A23187 stimulated; single determination or average; mark after value = form tested: ′ free base, ″ hydrochloride, ^ formate; read-out: IC50
Outline: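 LTB4 was measured by ELISA in supernatants after calcium ionophore A23187 stimulation (final 7 μg/mL, 30 min, 37° C) of CD-1 mouse blood collected on heparin. Compound was preincubated with the blood for 15 min beforehand. Values come from one determination or average several.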

[2] = target: T1, recombinant human LTA4 hydrolase (rhLTA4H) (Homo sapiens, UniProt P09960); test: Recombinant human LTA4 hydrolase assay for LTA4 hydrolase inhibitor activity; assay type: biochemical
T1 construct: made in house; host or cells: Spodoptera frugiperda (Sf-9) cells, baculovirus (pFastBac1)
T1 sequence (P09960 1-611): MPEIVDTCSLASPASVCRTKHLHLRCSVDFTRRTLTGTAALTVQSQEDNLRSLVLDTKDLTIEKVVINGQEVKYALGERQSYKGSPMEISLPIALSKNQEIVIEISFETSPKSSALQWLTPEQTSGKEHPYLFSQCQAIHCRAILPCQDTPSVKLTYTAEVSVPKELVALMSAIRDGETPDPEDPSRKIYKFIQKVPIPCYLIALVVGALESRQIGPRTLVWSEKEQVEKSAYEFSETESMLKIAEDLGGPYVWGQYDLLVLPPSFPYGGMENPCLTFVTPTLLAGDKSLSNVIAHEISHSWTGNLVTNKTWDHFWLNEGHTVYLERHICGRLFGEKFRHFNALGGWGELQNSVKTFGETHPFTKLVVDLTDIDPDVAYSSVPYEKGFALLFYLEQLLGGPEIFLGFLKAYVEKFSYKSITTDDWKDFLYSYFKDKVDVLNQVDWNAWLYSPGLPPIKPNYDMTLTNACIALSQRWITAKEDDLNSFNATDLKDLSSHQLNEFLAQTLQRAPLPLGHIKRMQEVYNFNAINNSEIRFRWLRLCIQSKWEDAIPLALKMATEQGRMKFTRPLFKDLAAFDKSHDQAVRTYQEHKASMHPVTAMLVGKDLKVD
Outline: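 LTB4 formation, measured by enzyme immunoassay, was the read-out. The enzyme, recombinant human LTA4H expressed in Sf-9 insect cells (10 ng per reaction), was exposed to compound for 10 min at room temperature before hydrolysed-ester LTA4 substrate was added for 30 min. Enzyme-free negatives were included.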

[3] = system: arachidonic acid-induced neutrophil influx in murine ear tissue; test: Murine arachidonic acid-induced inflammation model: neutrophil influx (myeloperoxidase) in ear; assay type: in vivo, Balb/c mice; settings: Mus musculus, read-out: % Inh. MPO
Experimental: (§1) Assay 3: Murine Arachidonic Acid-Induced Inflammation Model
(§2) LTA4H inhibitor compounds of the present invention were dissolved in 20% cyclodextran/H2O at a concentration of 3 mg/mL. The solutions were administered by oral gavage to female Balb/c mice weighing approximately 20 grams each (0.2 mL per mouse, 30 mg of LTA4H inhibitor compound per kg). Sixty minutes after being administered an LTA4 inhibitor, each mouse received topical application of 20 μL of arachidonic acid (100 mg/mL in acetone) to the left ear and 20 μL of acetone only to the right ear. After 3 h, the mice were sacrificed, blood was withdrawn in heparinized syringes, and 8 mm ear biopsies were taken. Ear biopsies were weighed to determine edema and then frozen at −80° C. until needed for determination of neutrophil influx.
Neutrophil influx was quantified by measuring the activity of myeloperoxidase (MPO), a neutrophil-specific enzyme. […] Debris was removed by centrifugation at 14000×g for 10 min. […] The microtiter plate contents were held at room temperature until the sample with the highest concentration of MPO reached an absorbance value of 0.4 at 650 nm. The reaction was stopped by addition of 50 μL 1 M H2SO4 to each sample well, and the myeloperoxidase activity in each sample was determined from the absorbance at […]. The background value from the right ear, treated only with acetone, was subtracted from that for the left ear, treated with arachidonic acid in acetone, for each animal. The percent inhibition of neutrophil influx (% Inh. MPO) by compounds of the invention was determined by comparison to animals treated identically, except that the solution administered by oral gavage was devoid of inhibitor compound. All compounds were assayed in their free base form.

[4] = system: ex vivo calcium ionophore-stimulated LTB4 production in whole blood; test: Murine arachidonic acid-induced inflammation model: ex vivo stimulated LTB4 production in blood; set-up: species or system Balb/c mice; settings: Mus musculus; 30 mg/kg oral gavage; blood diluted 1:1, A23187 stimulated ex vivo; percent inhibition of LTB4 production; read-out: % Inh. LTB4
Experimental: as §1, §2
The microtiter plate contents were incubated for 30 min at 37° C. in a humidified incubator. The reaction was terminated by centrifugation (833×g, 10 min at 4° C.). Supernatants were analyzed for LTB4 by a commercially available enzyme-linked immunoassay (Cayman Chemical Co.) in accordance with the manufacturer's instructions. The percent inhibition of ex vivo stimulated LTB4 production (% Inh. LTB4) was determined by comparison to animals treated identically except that the solution administered by oral gavage was devoid of inhibitor compound.

[5] = rhLTA4H, LTB4 by immunoassay, single determination or average of two or more, mark after value = form tested: ′ free base, ″ hydrochloride, ^ formate, read-out: IC50
[6] = 30 mg/kg oral gavage, 60 min before topical arachidonic acid, ear biopsy after 3 h, percent inhibition of neutrophil influx

SMILES | pIC50 [1] | pIC50 [2, 5] | inhibition at 30 mg/kg [3, 6] | inhibition at 30 mg/kg [4] | inhibition at 30 mg/kg ([3]; Neutrophil) | pIC50 [2]
CC(=O)NC1CCN(Cc2coc3cc(Oc4nc5ncccc5s4)ccc23)C1 (stereo not drawn) [Example 307, N-{1-[6-(Thiazolo[4,5-b]pyridin-2-yloxy)-benzofuran-3-ylmethyl]-pyrrolidin-3-yl}-acetamide formate] | 8.10 | 8.30 | – | 81% | 78% | –
O=C(c1coc2cc(Oc3nc4ncccc4s3)ccc12)N1CCC(N2CCCC2=O)CC1 [Example 370, 1-{1-[6-(Thiazolo[4,5-b]pyridin-2-yloxy)-benzofuran-3-carbonyl]-piperidin-4-yl}-pyrrolidin-2-one] | 7.52 | 8.05 | – | 78% | 69% | –
CCN(CC)Cc1cc2ccc(Oc3nc4ncccc4s3)cc2o1 [Example 198, Diethyl-[6-(thiazolo[4,5-b]pyridin-2-yloxy)-benzofuran-2-ylmethyl]-amine formate] | 6.96 | 7.96 | – | 80% | 74% | –
C[C@H]1COCCN1Cc1c[nH]c2cc(Oc3nc4ncccc4s3)ccc12 [Example 41, (3S)-2-[3-(3-Methyl-morpholin-4-ylmethyl)-1H-indol-6-yloxy]-thiazolo[4,5-b]pyridine] | 7.47 | 8.40 | 62% | 65% | – | –
CC(=O)N[C@H]1C[C@H]2CC[C@@H](C1)N2Cc1coc2cc(Oc3nc4ncccc4s3)ccc12 [Example 155, meso-endo-N-{8-[6-(Thiazolo[4,5-b]pyridin-2-yloxy)-benzofuran-3-ylmethyl]-8-aza-bicyclo[3.2.1]oct-3-yl}-acetamide] | 8.05 | – | 88% | 85% | – | 8.70
CC(=O)N[C@H]1C[C@H]2CC[C@@H](C1)N2C(=O)c1coc2cc(Oc3nc4ncccc4s3)ccc12 [Example 369, meso-endo-N-{8-[6-(Thiazolo[4,5-b]pyridin-2-yloxy)-benzofuran-3-carbonyl]-8-aza-bicyclo[3.2.1]oct-3-yl}-acetamide] | 7.00 | 7.72 | 76% | 58% | – | –
CC(=O)N1C[C@@H]2CC[C@H]1CN2Cc1cc2ncc(Oc3nc4ncccc4s3)cc2o1 [Example 339, (1S,4S)-1-{5-[6-(Thiazolo[4,5-b]pyridin-2-yloxy)-furo[3,2-b]pyridin-2-ylmethyl]-2,5-diaza-bicyclo[2.2.2]oct-2-yl}-ethanone formate] | 7.15 | 7.92 | – | 50% | 50% | –
CC(=O)NC1CCN(Cc2coc3cc(Oc4nc5ncccc5s4)ccc23)CC1 [Example 197, N-{1-[6-(Thiazolo[4,5-b]pyridin-2-yloxy)-benzofuran-3-ylmethyl]-piperidin-4-yl}-acetamide formate] | 7.82 | 8.40 | – | 91% | 92% | –

The next lines start with results.

pIC50 [1] | pIC50 [2, 5] | SMILES | inhibition at 30 mg/kg [3, 6] | inhibition at 30 mg/kg [4] | inhibition at 30 mg/kg ([3]; Neutrophil) | pIC50 [2]
7.66 | 8.70 | CC(=O)N1C[C@@H]2CC[C@H]1CN2Cc1coc2cc(Oc3nc4ncccc4s3)ccc12 [Example 237, (1S,4S)1-{5-[6-(Thiazolo[4,5-b]pyridin-2-yloxy)-benzofuran-3-ylmethyl]-2,5-diaza-bicyclo[2.2.2]oct-2-yl}-ethanone] | 81% | 90% | – | –
7.21 | 7.70 | CC(=O)N1C[C@H]2C[C@@H]1CN2C(=O)c1cc2cc(Oc3nc4ncccc4s3)ccc2o1 [Example 366, (1R,4R)-1-{5-[5-(Thiazolo[4,5-b]pyridin-2-yloxy)-benzofuran-2-carbonyl]-2,5-diaza-bicyclo[2.2.1]hept-2-yl}-ethanone] | 50% | 78% | – | –
7.24 | 8.22 | CS(=O)(=O)C1CCN(Cc2coc3cc(Oc4nc5ncccc5s4)ccc23)CC1 [Example 183, 2-[3-(4-Methanesulfonyl-piperidin-1-ylmethyl)-benzofuran-6-yloxy]-thiazolo[4,5-b]pyridine] | 85% | 83% | – | –
6.54 | 7.09 | c1cnc2sc(Oc3ccc4c(CN5CCOCC5)c[nH]c4c3)nc2n1 [Example 56, 2-(3-Morpholin-4-ylmethyl-1H-indol-6-yloxy)-thiazolo[4,5-b]pyrazine] | 45% | 40% | – | –
7.72 | 8.70 | CNC(=O)C1CCN(Cc2coc3cc(Oc4nc5ncccc5s4)ccc23)CC1 [Example 214, 1-[6-(Thiazolo[4,5-b]pyridin-2-yloxy)-benzofuran-3-ylmethyl]-piperidine-4-carboxylic acid methylamide] | 88% | 90% | – | –
7.15 | 8.52 | CC(=O)N[C@H]1C[C@@H]2C[C@H]1CN2Cc1cc2ccc(Oc3nc4ncccc4s3)cc2o1 [Example 189, (1S,4S,5S)—N-{2-[6-(Thiazolo[4,5-b]pyridin-2-yloxy)-benzofuran-2-ylmethyl]-2-aza-bicyclo[2.2.1]hept-5-yl}-acetamide] | 84% | 76% | – | –
7.36 | 8.30 | CC(=O)N1CCC(N(Cc2coc3cc(Oc4nc5ncccc5s4)ccc23)C2CC2)CC1 [Example 238, 1-(4-{Cyclopropyl-[6-(thiazolo[4,5-b]pyridin-2-yloxy)-benzofuran-3-ylmethyl]-amino}-piperidin-1-yl)-ethanone] | 77% | 93% | – | –
7.62 | 8.30 | CS(=O)(=O)NC1CCN(Cc2coc3cc(Oc4nc5ncccc5s4)ccc23)CC1 [Example 244, N-{1-[6-(Thiazolo[4,5-b]pyridin-2-yloxy)-benzofuran-3-ylmethyl]-piperidin-4-yl}-methanesulfonamide] | 89% | 80.7% | – | –
7.10 | 8.30 | CC(=O)N1C[C@@H]2CC[C@H]1CN2Cc1cc2ccc(Oc3nc4ncccc4s3)cc2o1 [Example 170, meso-1-{5-[6-(Thiazolo[4,5-b]pyridin-2-yloxy)-benzofuran-2-ylmethyl]-2,5-diaza-bicyclo[2.2.2]oct-2-yl}-ethanone] | 70% | 76% | – | –
7.41 | 8.05 | CC(=O)N1CCCN(Cc2coc3cc(Oc4nc5ncccc5s4)ccc23)CC1 [Example 182, 1-{4-[6-(Thiazolo[4,5-b]pyridin-2-yloxy)-benzofuran-3-ylmethyl]-[1,4]diazepan-1-yl}-ethanone] | 67% | 85% | – | –
